Patent publication US12024506B2, “Compounds” (Oxford University Innovation Limited, priority 2018, dated 2024)

Assays:
[1] = system: H358 cells (ATCC CRL-5807); assay: Cell viability assay 1 (CellTiter-Glo), H358 cells; format: cell-based; details: Homo sapiens, NCI-H358, 48 h, first value of the cell, read-out: Cell Viability H358 (concentration that decreases cell viability by 50%)
Outline: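 H358 cells were grown in RPMI-1640 with 10% FCS and 2 mM L-glutamine, plated at 5000 cells/well and allowed to adhere overnight. Compound was added in 0.5% DMSO final for 48 h at 37° C. Viability was read by CellTiter-Glo luminescence, with the 50% viability-reducing concentration derived from dose-response curves.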

[2] = target: T1, GST-human KRas166 (G12V) GPPNHP (Homo sapiens, UniProt P01116, G12V); assay: KRas small-molecule screening by SPR (Biacore T200); format: binding; details: compound 100 uM, 5% DMSO buffer; immobilised GST-KRas166 (G12V) GPPNHP
T1 construct: made in house; host or cells: E. coli C41(DE3)
Outline: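 Biacore T200 screen: compounds at 100 uM final in 5% DMSO buffer (100 mM NaCl, 5 mM MgCl2) over GPPNHP-bound GST-KRas166 G12V captured by anti-GST antibody (10,000–15,000 RU) versus GST-only channel. Expected 1:1 Rmax 63 RU; DMSO solvent correction applied.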

[3] = system: DLD1 cells (ATCC CCL-221); assay: Cell viability assay 1 (CellTiter-Glo), DLD1 cells; format: cell-based; details: Homo sapiens, DLD-1 cells, 48 h, second value of the cell, read-out: Cell Viability DLD-1 (concentration that decreases cell viability by 50%)
Outline: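 DLD1 cells grown in RPMI-1640 with 10% FCS, 2 mM L-glutamine, 37 °C, 5% CO2, plated overnight then exposed to compound (0.5% DMSO) for 48 h. Viability by CellTiter-Glo luminescence; value is concentration reducing viability by 50% from dose-response curves.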

SMILES | IC50 [1] | SPR Response Units [2] | IC50 [3]
COc1nc(-c2cccc3c2OCCO3)ccc1Nc1ccc(CNC[C@H]2COCCN2)cc1 [Example 129, [6-(2,3-Dihydro-benzo[1,4]dioxin-5-yl)-2-methoxy-pyridin-3-yl]-(4-{[((S)-1-morpholin-3-ylmethyl)-amino]-methyl}-phenyl)-amine] | 6.5 µM | 92 Response Units | 10.2 µM
COc1cccc(-c2cccc3c2OC(CN(Cc2ccc(OCCN(C)C)cc2)CC2CCOCC2)CO3)n1 (stereo not drawn) [Example 32, [2-(4-{[[8-(6-Methoxy-pyridin-2-yl)-2,3-dihydro-benzo[1,4]dioxin-2-ylmethyl]-(tetrahydro-pyran-4-ylmethyl)-amino]-methyl}-phenoxy)-ethyl]-dimethyl-amine] | 17 µM | 85 Response Units | 7 µM
COc1nc(-c2cccc3c2OCCO3)ccc1Nc1ccc(CNCC2CCC(=O)NC2)cc1 (stereo not drawn) [Example 172, 5-({4-[6-(2,3-Dihydro-benzo[1,4]dioxin-5-yl)-2-methoxy-pyridin-3-ylamino]-benzylamino}-methyl)-piperidin-2-one] | 23.3 µM | 174 Response Units | 4.7 µM
COc1nc(-c2cccc3c2OC(CNC(=O)C2CCOCC2)CO3)ccc1Nc1ccc(CNCc2ccn[nH]2)cc1 (stereo not drawn) [Example 120, Tetrahydro-pyran-4-carboxylic acid {8-[6-methoxy-5-(4-{[(2H-pyrazol-3-ylmethyl)-amino]-methyl}-phenylamino)-pyridin-2-yl]-2,3-dihydro-benzo[1,4]dioxin-2-ylmethyl}-amide] | 12.4 µM | 230 Response Units | 10.9 µM
COc1nc(-c2cccc3c2OCCO3)ccc1Nc1ccc(CN2CCN(Cc3cccnc3)CC2)cc1 [Example 199, [6-(2,3-Dihydro-benzo[1,4]dioxin-5-yl)-2-methoxy-pyridin-3-yl]-[4-(4-pyridin-3-ylmethyl-piperazin-1-ylmethyl)-phenyl]-amine] | 24.2 µM | 93 Response Units | 6.5 µM
COc1cccc(-c2cccc3c2OC(CNC(=O)c2ccc(CN4CCN(C)CC4)o2)CO3)n1 (stereo not drawn) [Example 43, 5-(4-Methyl-piperazin-1-ylmethyl)-furan-2-carboxylic acid [8-(6-methoxy-pyridin-2-yl)-2,3-dihydro-benzo[1,4]dioxin-2-ylmethyl]-amide] | > 100 µM | 105 Response Units | 19 µM
COc1nc(-c2cccc3c2OCCO3)ccc1Nc1cccc(CNCC2CCN(C(C)=O)CC2)c1 [Example 191, 1-[4-({3-[6-(2,3-Dihydro-benzo[1,4]dioxin-5-yl)-2-methoxy-pyridin-3-ylamino]-benzylamino}-methyl)-piperidin-1-yl]-ethanone] | 91.8 µM | 327 Response Units | 7.9 µM
CN(C)Cc1cccc(Nc2ccc(-c3cccc4c3OCCO4)cc2)c1.O=CO [Example 70, [4-(2,3-Dihydro-benzo[1,4]dioxin-5-yl)-phenyl]-(3-dimethylaminomethyl-phenyl)-amine. formate salt] | 8.6 µM | 86 Response Units | 10.6 µM
COc1nc(-c2cccc3c2OCCO3)ccc1Nc1cccc(CC(=O)NC2CCC(=O)NC2)c1 (stereo not drawn) [Example 206, 2-{3-[6-(2,3-Dihydro-benzo[1,4]dioxin-5-yl)-2-methoxy-pyridin-3-ylamino]-phenyl}-N-(6-oxo-piperidin-3-yl)-acetamide] | 11 µM | 151 Response Units | 35.9 µM
COc1nc(-c2cccc3c2OCCO3)ccc1Nc1cccc([C@@H]2CCCN2)c1 [Example 75, [6-(2,3-Dihydro-benzo[1,4]dioxin-5-yl)-2-methoxy-pyridin-3-yl]-((S)-3-pyrrolidin-2-yl-phenyl)-amine] | 2.6 µM | 112 Response Units | 4 µM
COc1cccc(-c2cccc3c2OC(CNC(=O)c2ccc(OCCN(C)C)cc2F)CO3)n1 (stereo not drawn) [Example 38, 4-(2-Dimethylamino-ethoxy)-2-fluoro-N-[8-(6-methoxy-pyridin-2-yl)-2,3-dihydro-benzo[1,4]dioxin-2-ylmethyl]-benzamide] | 58 µM | 335 Response Units | 3.6 µM
COc1nc(-c2cccc3c2OCCO3)ccc1Nc1ccc(CNCC2CCNCC2)cc1 [Example 178, [6-(2,3-Dihydro-benzo[1,4]dioxin-5-yl)-2-methoxy-pyridin-3-yl]-(4-{[(piperidin-4-ylmethyl)-amino]-methyl}-phenyl)-amine] | 1.8 µM | 150 Response Units | 0.27 µM
COc1nc(-c2cccc3c2OCCO3)ccc1Nc1cccc(CN2CCCC2)c1 [Example 60, [6-(2,3-Dihydro-benzo[1,4]dioxin-5-yl)-2-methoxy-pyridin-3-yl]-(3-pyrrolidin-1-ylmethyl-phenyl)-amine] | 11.4 µM | 108 Response Units | 7.5 µM
COc1nc(-c2cccc3c2OCCO3)ccc1Nc1ccc(CNCc2cccc(F)n2)cc1 [Example 188, [6-(2,3-Dihydro-benzo[1,4]dioxin-5-yl)-2-methoxy-pyridin-3-yl]-(4-{[(6-fluoro-pyridin-2-ylmethyl)-amino]-methyl}-phenyl)-amine] | 27.4 µM | 103 Response Units | 49.5 µM
COc1cccc(-c2cccc3c2OC(CN(Cc2ccc(OCCN(C)C)cc2)Cc2cccnc2)CO3)n1 (stereo not drawn) [Example 31, {2-[4-({[8-(6-Methoxy-pyridin-2-yl)-2,3-dihydrobenzo[1,4]dioxin-2-ylmethyl]-pyridin3-ylmethyl-amino}-methyl)-phenoxy]-ethyl}-dimethyl-amine] | 18 µM | 119 Response Units | 3 µM
CN1CCN(Cc2ccc(C(=O)NCC3COc4cccc(-c5cc(OCc6ccccc6)ccn5)c4O3)o2)CC1 (stereo not drawn) [Example 106, 5-(4-Methyl-piperazin-1-ylmethyl)-furan-2-carboxylic acid [8-(4-benzyloxy-pyridin-2-yl)-2,3-dihydro-benzo[1,4]dioxin-2-ylmethyl]-amide] | 27 µM | 114 Response Units | 11 µM
COc1cc(NC(=O)C2CNCCO2)cc(-c2cccc3c2O[C@H](CNC(=O)c2ccc(CN4CCN(C)CC4)o2)CO3)n1 (stereo partly drawn) [Example 130, Morpholine-2-carboxylic acid{2-methoxy-6-[(R)-3-({[5-(4-methyl-piperazin-1-ylmethyl)-furan-2-carbonyl]-amino}-methyl)-2,3-dihydro-benzo[1,4]dioxin-5-yl]-pyridin-4-yl}-amide] | 13.6 µM | 61 Response Units | 11.9 µM
COc1nc(-c2cccc3c2OCCO3)ccc1Nc1cccc(CC(=O)NC2CCN(C)CC2)c1 [Example 203, 2-{3-[6-(2,3-Dihydro-benzo[1,4]dioxin-5-yl)-2-methoxy-pyridin-3-ylamino]-phenyl}-N-(1-methyl-piperidin-4-yl)-acetamide] | 33.7 µM | 339 Response Units | 12.2 µM
COc1nc(-c2cccc3c2OCCO3)ccc1Nc1cccc([C@H]2CCCN2)c1 [Example 74, [6-(2,3-Dihydro-benzo[1,4]dioxin-5-yl)-2-methoxy-pyridin-3-yl]-((R)-3-pyrrolidin-2-yl-phenyl)-amine] | 3.11 µM | 110 Response Units | 6 µM
COc1nc(-c2cccc3c2OCCO3)ccc1Nc1cccc(C(=O)NCc2cc[nH]c(=O)c2)c1 [Example 165, 3-[6-(2,3-Dihydro-benzo[1,4]dioxin-5-yl)-2-methoxy-pyridin-3-ylamino]-N-(2-oxo-1,2-dihydro-pyridin-4-ylmethyl)-benzamide] | 18.3 µM | 114 Response Units | 11.1 µM
COc1nc(-c2cccc3c2OCCO3)ccc1Nc1ccc(CNCC2CNC(=O)C2)cc1 (stereo not drawn) [Example 173, 4-({4-[6-(2,3-Dihydro-benzo[1,4]dioxin-5-yl)-2-methoxy-pyridin-3-ylamino]-benzylamino}-methyl)-pyrrolidin-2-one] | 7.4 µM | 147 Response Units | 4 µM
COc1nc(-c2cccc3c2OCCO3)ccc1Nc1cccc(CN2CCOCC2)c1 [Example 61, [6-(2,3-Dihydro-benzo[1,4]dioxin-5-yl)-2-methoxy-pyridin-3-yl]-(3-morpholin-4-ylmethyl-phenyl)-amine] | 20.1 µM | 61 Response Units | 12.2 µM
COc1cccc(-c2cccc3c2O[C@@H](CNC(=O)c2ccc(OCCN(C)C)cc2)CO3)n1 [Example 41, 4-(2-Dimethylamino-ethoxy)-N-[(S)-8-(6-methoxy-pyridin-2-yl)-2,3-dihydrobenzo [1,4]dioxin-2-ylmethyl]-benzamide] | 48 µM | 60 Response Units | 20 µM
